The results in this text go back to patent US20230365592A1 (Agios Pharmaceuticals, Inc., priority 2022, published 2023).

The first assay has as its target T1, human PAH with the R408W mutation (Homo sapiens, UniProt P00439, R408W).
T1 construct: expressed in transfected cells
T1 sequence (P00439 1-452 R408W): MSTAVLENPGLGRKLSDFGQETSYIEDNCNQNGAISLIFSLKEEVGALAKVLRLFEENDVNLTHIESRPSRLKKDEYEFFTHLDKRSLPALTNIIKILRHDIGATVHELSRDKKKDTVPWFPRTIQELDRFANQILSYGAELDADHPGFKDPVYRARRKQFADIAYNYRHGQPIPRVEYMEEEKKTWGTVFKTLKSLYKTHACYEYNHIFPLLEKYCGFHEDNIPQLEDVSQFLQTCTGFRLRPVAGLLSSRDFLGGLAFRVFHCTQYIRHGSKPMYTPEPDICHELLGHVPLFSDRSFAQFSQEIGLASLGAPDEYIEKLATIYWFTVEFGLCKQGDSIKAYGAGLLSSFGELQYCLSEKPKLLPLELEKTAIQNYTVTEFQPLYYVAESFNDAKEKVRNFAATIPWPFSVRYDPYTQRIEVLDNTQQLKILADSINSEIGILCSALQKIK
The experiment in a line: Cell Based Phenylalanine Flux Assay.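 Note: after compound treatment, cells received sepiapterin plus isotope-labelled Phenylalanine for 4 hours, then labelled Tyrosine in the medium was quantified, 10-point 2-fold dilution series run in duplicate.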 As to conditions: A375 cells expressing R408W PAH; 24 hrs with compound, then 20 µM sepiapterin and 800 µM 13C9,15N-Phenylalanine for 4 hours; 13C-Tyrosine by LC-MS; average where tested multiple times; read-out: AC50.
As to `Cn1cc(N2CCc3[nH]cnc3C2c2cc3c(F)cccn3n2)cn1` (stereo not drawn), the concentration at half-maximal activity (AC50) fell in the range of 1000 to 5000 nM.

For the compound `O=C(c1cn[nH]c1Cl)N1CCc2[nH]cnc2C1c1cc2ccccn2n1` (stereo not drawn), the half-maximal activity concentration (AC50) lay within 1000 to 5000 nM.

On to `CC1(c2nnc(N3CCc4[nH]cnc4C3c3cc4c(C(F)(F)F)cccn4n3)o2)CC1` (stereo not drawn), for which the AC50 fell in the range of 1000 to 5000 nM.

For the compound `Cc1nnc(C(=O)N2CCc3[nH]cnc3C2c2cc3ccccn3n2)o1` (stereo not drawn), the concentration at half-maximal activity (AC50) is more than 5000 nM.

Regarding `O=C(Cc1cnn2ccccc12)N1CCc2[nH]cnc2C1c1cc2ccccn2n1` (stereo not drawn), the half-maximal activity concentration (AC50) was more than 5000 nM.

Consider `O=C(c1nnc(C2CC(F)(F)C2)o1)N1CCc2[nH]cnc2[C@H]1c1cc2cccc(F)n2n1` (single isomer, unassigned), for which the concentration at half-maximal activity (AC50) was 1000 to 5000 nM.

As for `Cn1cc(N2CCc3[nH]cnc3[C@H]2c2cc3ccccn3n2)cn1` (single isomer, unassigned), the AC50 was more than 5000 nM.

Regarding `Cn1ccc(-c2nc(C(F)F)c(C(=O)N3CCc4[nH]cnc4C3c3cc4c(F)cccn4n3)o2)n1` (stereo not drawn), the AC50 was more than 5000 nM.

The assay is the same for the next values; noted with them: A375 cells expressing human PAH R408W; 24 hrs compound incubation; 13C-Tyrosine by LC-MS; average where tested multiple times; read-out: AC50.
With `COCc1ccc2c(C(=O)N3CCc4[nH]cnc4[C@@H]3c3cc4c(C)cccn4n3)cnn2c1` [Example 2437, (R)-(6-(methoxymethyl)pyrazolo[1,5-a]pyridin-3-yl)(4-(4-methylpyrazolo[1,5-a]pyridin-2-yl)-6,7-dihydro-1H-imidazo[4,5-c]pyridin-5(4H)-yl)methanone], the AC50 is more than 5000 nM.

With `O=C(c1nnc(-c2ccccn2)s1)N1CCc2[nH]cnc2[C@@H]1c1cc2ccccn2n1` [Example 1967, (R)-(4-(pyrazolo[1,5-a]pyridin-2-yl)-1,4,6,7-tetrahydro-5H-imidazo[4,5-c]pyridin-5-yl)(5-(pyridin-2-yl)-1,3,4-thiadiazol-2-yl)methanone], the half-maximal activity concentration (AC50) was more than 5000 nM.

As to `Cn1nccc1-c1nnc(C(=O)N2CCc3[nH]cnc3[C@@H]2c2cc3ccccn3n2)o1` [Example 2005, (R)-(5-(1-methyl-1H-pyrazol-5-yl)-1,3,4-oxadiazol-2-yl)(4-(pyrazolo[1,5-a]pyridin-2-yl)-1,4,6,7-tetrahydro-5H-imidazo[4,5-c]pyridin-5-yl)methanone], the AC50 was more than 5000 nM.

Turning to `Fc1cccc(-c2nnc(N3CCc4[nH]cnc4[C@H]3c3cc4c(C(F)(F)F)cccn4n3)o2)n1` [Example 2363, (S)-2-(6-fluoropyridin-2-yl)-5-(4-(4-(trifluoromethyl)pyrazolo[1,5-a]pyridin-2-yl)-1,4,6,7-tetrahydro-5H-imidazo[4,5-c]pyridin-5-yl)-1,3,4-oxadiazole], the half-maximal activity concentration (AC50) lay in the range of 500 to 1000 nM.

Consider `COc1cccn2nc([C@@H]3c4nc[nH]c4CCN3C(=O)c3nnc(-c4cnn(C(F)F)c4)o3)cc12` [Example 2446, (S)-(5-(1-(difluoromethyl)-1H-pyrazol-4-yl)-1,3,4-oxadiazol-2-yl)(4-(4-methoxypyrazolo[1,5-a]pyridin-2-yl)-6,7-dihydro-1H-imidazo[4,5-c]pyridin-5(4H)-yl)methanone], for which the AC50 fell in the range of 1000 to 5000 nM.

Take `Fc1cccc(F)c1-c1nnc(N2CCc3[nH]cnc3[C@H]2c2cc3cccc(Cl)n3n2)o1` [Example 2089, (S)-2-(4-(7-chloropyrazolo[1,5-a]pyridin-2-yl)-1,4,6,7-tetrahydro-5H-imidazo[4,5-c]pyridin-5-yl)-5-(2,6-difluorophenyl)-1,3,4-oxadiazole]: the AC50 is less than 500 nM.

As to `Cc1cccc(-c2nnc(N3CCc4[nH]cnc4[C@H]3c3cc4c(C(F)F)cccn4n3)o2)n1` [Example 2347, (S)-2-(4-(4-(difluoromethyl)pyrazolo[1,5-a]pyridin-2-yl)-1,4,6,7-tetrahydro-5H-imidazo[4,5-c]pyridin-5-yl)-5-(6-methylpyridin-2-yl)-1,3,4-oxadiazole], the AC50 is 500 to 1000 nM.

With `Cc1cccn2nc([C@H]3c4nc[nH]c4CCN3C(=O)c3nnc(-c4cnn(C)c4)s3)cc12` [Example 2046, (R)-(5-(1-methyl-1H-pyrazol-4-yl)-1,3,4-thiadiazol-2-yl)(4-(4-methylpyrazolo[1,5-a]pyridin-2-yl)-1,4,6,7-tetrahydro-5H-imidazo[4,5-c]pyridin-5-yl)methanone], the half-maximal activity concentration (AC50) was more than 5000 nM.

Turning to `CC(C)c1cccn2nc([C@@H]3c4nc[nH]c4CCN3c3nnc(C4CC4)o3)cc12` [Example 2169, (S)-2-cyclopropyl-5-(4-(4-isopropylpyrazolo[1,5-a]pyridin-2-yl)-1,4,6,7-tetrahydro-5H-imidazo[4,5-c]pyridin-5-yl)-1,3,4-oxadiazole], the concentration at half-maximal activity (AC50) is less than 500 nM.

Turning to `Nc1cnc(N2CCc3[nH]cnc3[C@@H]2c2cc3c(C(F)F)cccn3n2)nc1` [Example 1853, (R)-2-(4-(4-(difluoromethyl)pyrazolo[1,5-a]pyridin-2-yl)-1,4,6,7-tetrahydro-5H-imidazo[4,5-c]pyridin-5-yl)pyrimidin-5-amine], the half-maximal activity concentration (AC50) was in the range of 1000 to 5000 nM.

Turning to `Cc1nnc(N2CCc3[nH]cnc3[C@H]2c2cc3c(C(F)F)cccn3n2)o1` [Example 2467, (S)-2-(4-(4-(difluoromethyl)pyrazolo[1,5-a]pyridin-2-yl)-6,7-dihydro-1H-imidazo[4,5-c]pyridin-5(4H)-yl)-5-methyl-1,3,4-oxadiazole], the concentration at half-maximal activity (AC50) was in the range of 1000 to 5000 nM.

Staying with this assay, now noted: A375 cells expressing human R408W PAH; 24 hrs compound incubation; 13C-Tyrosine by LC-MS; average where tested multiple times; read-out: AC50.
For the compound `FC(F)c1cccn2nc([C@H]3c4nc[nH]c4CCN3c3ncc(C(F)(F)F)cn3)cc12` [Example 1777, (R)-4-(4-(difluoromethyl)pyrazolo[1,5-a]pyridin-2-yl)-5-(5-(trifluoromethyl)pyrimidin-2-yl)-4,5,6,7-tetrahydro-1H-imidazo[4,5-c]pyridine], the AC50 was more than 5000 nM.

As for `CC1(c2nnc(C(=O)N3CCc4[nH]cnc4[C@@H]3c3cc4ccccn4n3)o2)CC1` [Example 1285, (R)-(5-(1-methylcyclopropyl)-1,3,4-oxadiazol-2-yl)(4-(pyrazolo[1,5-a]pyridin-2-yl)-6,7-dihydro-1H-imidazo[4,5-c]pyridin-5(4H)-yl)methanone], the half-maximal activity concentration (AC50) is 1000 to 5000 nM.

As to `O=C(c1nnc(-c2cccnc2)o1)N1CCc2[nH]cnc2[C@@H]1c1cc2ccccn2n1` [Example 1347, (R)-(4-(pyrazolo[1,5-a]pyridin-2-yl)-6,7-dihydro-1H-imidazo[4,5-c]pyridin-5(4H)-yl)(5-(pyridin-3-yl)-1,3,4-oxadiazol-2-yl)methanone], the AC50 lay within 1000 to 5000 nM.

Take `CC(C)(O)c1nc(Cl)c(C(=O)N2CCc3[nH]cnc3[C@H]2c2cc3c(Cl)cccn3n2)o1` [Example 720, (S)-(4-chloro-2-(2-hydroxypropan-2-yl)oxazol-5-yl)(4-(4-chloropyrazolo[1,5-a]pyridin-2-yl)-6,7-dihydro-1H-imidazo[4,5-c]pyridin-5(4H)-yl)methanone]: the AC50 is less than 500 nM.

As to `O=C(c1nnc(-c2cnccn2)o1)N1CCc2[nH]cnc2[C@@H]1c1cc2cccc(Cl)n2n1` [Example 978, (R)-(4-(7-chloropyrazolo[1,5-a]pyridin-2-yl)-6,7-dihydro-1H-imidazo[4,5-c]pyridin-5(4H)-yl)(5-(pyrazin-2-yl)-1,3,4-oxadiazol-2-yl)methanone], the AC50 is 1000 to 5000 nM.

In the case of `O=C(c1nnc(-c2cnccn2)o1)N1CCc2[nH]cnc2[C@@H]1c1cc2cccc(C(F)F)n2n1` [Example 1534, (R)-(4-(7-(difluoromethyl)pyrazolo[1,5-a]pyridin-2-yl)-6,7-dihydro-1H-imidazo[4,5-c]pyridin-5(4H)-yl)(5-(pyrazin-2-yl)-1,3,4-oxadiazol-2-yl)methanone], the AC50 is 1000 to 5000 nM.

As to `O=C(c1nnc(-c2ncccn2)o1)N1CCc2[nH]cnc2[C@H]1c1cc2cccc(Cl)n2n1` [Example 1393, (S)-(4-(7-chloropyrazolo[1,5-a]pyridin-2-yl)-6,7-dihydro-1H-imidazo[4,5-c]pyridin-5(4H)-yl)(5-(pyrimidin-2-yl)-1,3,4-oxadiazol-2-yl)methanone], the half-maximal activity concentration (AC50) was less than 500 nM.

As to `Cc1c(-c2nnc(C(=O)N3CCc4[nH]cnc4[C@H]3c3cc4cccc(F)n4n3)o2)cnn1C` [Example 1462, (S)-(5-(1,5-dimethyl-1H-pyrazol-4-yl)-1,3,4-oxadiazol-2-yl)(4-(7-fluoropyrazolo[1,5-a]pyridin-2-yl)-6,7-dihydro-1H-imidazo[4,5-c]pyridin-5(4H)-yl)methanone], the AC50 was less than 500 nM.

Take `Cc1c(-c2nnc(C(=O)N3CCc4[nH]cnc4[C@H]3c3cc4cccc(Cl)n4n3)o2)cnn1C` [Example 1208, (S)-(4-(7-chloropyrazolo[1,5-a]pyridin-2-yl)-6,7-dihydro-1H-imidazo[4,5-c]pyridin-5(4H)-yl)(5-(1,5-dimethyl-1H-pyrazol-4-yl)-1,3,4-oxadiazol-2-yl)methanone]: the AC50 was less than 500 nM.

As to `Cn1cc(-c2nc(C(F)F)c(C(=O)N3CCc4[nH]cnc4[C@@H]3c3cc4c(F)cccn4n3)o2)cn1` [Example 903, (R)-(4-(difluoromethyl)-2-(1-methyl-1H-pyrazol-4-yl)oxazol-5-yl)(4-(4-fluoropyrazolo[1,5-a]pyridin-2-yl)-6,7-dihydro-1H-imidazo[4,5-c]pyridin-5(4H)-yl)methanone], the AC50 lay within 1000 to 5000 nM.

`CC(C)(C)c1nnc(C(=O)N2CCc3[nH]cnc3[C@H]2c2cc3c(OC(F)(F)F)cccn3n2)o1` [Example 1759, (S)-(5-(tert-butyl)-1,3,4-oxadiazol-2-yl)(4-(4-(trifluoromethoxy)pyrazolo[1,5-a]pyridin-2-yl)-6,7-dihydro-1H-imidazo[4,5-c]pyridin-5(4H)-yl)methanone]: the half-maximal activity concentration (AC50) was 500 to 1000 nM.

Usually AC50 stands for the concentration giving half of the maximal activity seen.
